PubChem BioAssay (NCI)
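Each compound was tested at five concentrations against cells in 96-well plates for 48 hours. GI50 is the concentration that inhibits growth by half. TGI: total growth inhibition.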

Legend:
Test in all cases: growth of human tumour cells (NCI), 48 h
[1] = tested on: A498 renal
[2] = tested on: ACHN renal
[3] = tested on: CCRF-CEM leukemia
[4] = tested on: HCT-15 colon
[5] = tested on: M14 melanoma
[6] = tested on: M19-MEL melanoma
[7] = tested on: UACC-257 melanoma
[8] = tested on: XF 498 CNS
[9] = tested on: BT-549 breast
[10] = tested on: PC-3 prostate

Nc1nc(NC(=O)C2=NS(=O)(=O)c3cc(S(N)(=O)=O)c(Cl)cc3N2)n[nH]1
TGI [1]: > 100 µM
TGI [2]: > 100 µM
TGI [3]: > 100 µM
TGI [4]: > 100 µM
TGI [5]: > 100 µM
TGI [6]: > 100 µM
TGI [7]: > 100 µM
TGI [8]: > 100 µM

CN1CCN(c2nc3c(c(=O)n(C)c(=O)n3C)n2C)CC1
TGI [1]: > 100 µM
TGI [2]: > 100 µM
TGI [9]: > 100 µM
TGI [3]: > 100 µM
TGI [4]: > 100 µM
TGI [5]: > 100 µM
TGI [10]: > 100 µM
TGI [7]: > 100 µM

CC(=O)CC(=O)Nn1c(-c2cccs2)nc2ccc(I)cc2c1=O
GI50 [1]: 19.9 µM
TGI [1]: 43.1 µM
TGI [2]: > 100 µM
TGI [9]: > 71 µM
TGI [3]: > 100 µM
TGI [4]: > 100 µM
TGI [5]: > 100 µM
TGI [10]: > 100 µM
TGI [7]: > 100 µM

CC(C)CCC[C@@H](C)[C@H]1CC[C@H]2[C@@H]3CC=C4CC(OCCCCN(O)CCCSC5OC(CO)C(O)C(O)C5O)CC[C@]4(C)[C@H]3CC[C@]12C (some centres not stated)
TGI [1]: > 100 µM
TGI [2]: > 100 µM
TGI [3]: 72 µM
TGI [4]: > 100 µM
TGI [5]: 56.3 µM
TGI [6]: > 100 µM
TGI [7]: > 100 µM
TGI [8]: > 100 µM

NC(N)=NS(=O)(=O)c1ccc(NC(=O)c2c3ccccc3nc3ccccc23)cc1
TGI [1]: > 100 µM
TGI [2]: > 100 µM
TGI [9]: > 100 µM
TGI [3]: > 100 µM
TGI [4]: > 100 µM
TGI [5]: > 100 µM
TGI [10]: > 100 µM
TGI [7]: > 100 µM

O=C1N[C@@H](c2c[nH]c3ccc(Br)cc23)C(=O)N[C@H]1c1c[nH]c2ccc(Br)cc12
TGI [1]: 18.5 µM
TGI [2]: 15.8 µM
TGI [9]: 35.4 µM
TGI [3]: 24 µM
TGI [4]: 37 µM
TGI [5]: 21.2 µM
TGI [10]: 16.1 µM
TGI [7]: 26.8 µM

COc1cc2c(oc(=O)c3c4oc([Si](C)(C)C)cc4cc(OC)c23)c2cccc(O)c12
TGI [1]: > 100 µM
TGI [2]: > 100 µM
TGI [3]: > 100 µM
TGI [4]: > 100 µM
TGI [5]: > 100 µM
TGI [6]: > 100 µM
TGI [7]: > 100 µM
TGI [8]: > 100 µM

O=C1c2c(ccc3c2CCCC3)CC12Cc1ccccc1C2
TGI [1]: 77.5 µM
TGI [2]: 97.1 µM
TGI [9]: > 100 µM
TGI [3]: 27 µM
TGI [4]: > 49.8 µM
TGI [5]: > 100 µM
TGI [10]: > 100 µM
TGI [7]: 54 µM

O=S(=O)(N1CCCCN(S(=O)(=O)C(F)(F)F)CCCN(S(=O)(=O)C(F)(F)F)CCCN(S(=O)(=O)C(F)(F)F)CCCCN(S(=O)(=O)C(F)(F)F)CCCN(S(=O)(=O)C(F)(F)F)CCC1)C(F)(F)F
TGI [1]: > 100 µM
TGI [2]: > 100 µM
TGI [9]: 73.2 µM
TGI [3]: > 100 µM
TGI [4]: > 100 µM
TGI [5]: > 100 µM
TGI [10]: > 100 µM
TGI [7]: > 100 µM

Cc1ccc(-c2cn3c(nc4ccccc43)c(C)n2)cc1
TGI [1]: > 77.5 µM
TGI [2]: > 100 µM
TGI [9]: > 89.4 µM
TGI [3]: > 100 µM
TGI [4]: > 100 µM
TGI [5]: > 100 µM
TGI [10]: > 100 µM
TGI [7]: > 100 µM

COc1cc2c(cc1C)NC(=O)/C2=C/c1c(Cl)n(C)c2ccccc12
TGI [1]: 21.5 µM
TGI [2]: 25.7 µM
TGI [9]: 24.4 µM
TGI [3]: > 100 µM
TGI [4]: 20.5 µM
TGI [5]: 48.1 µM
TGI [10]: 29.6 µM
TGI [7]: 34.7 µM

CCC1OC(=O)C(C)C(OC2CC(C)(O)C(O)C(C)O2)C(C)C(O)C(C)(O)CC(C)C(=O)C(C)C(O)C1C (configuration not stated)
TGI [1]: > 300 µM
TGI [3]: > 300 µM
TGI [4]: > 300 µM
TGI [6]: > 300 µM
TGI [7]: > 300 µM
TGI [8]: > 300 µM

O=C(C(Cl)=C(Nc1ccccc1)Nc1ccccc1)C(Cl)Cl
TGI [1]: 74.5 µM
TGI [2]: > 100 µM
TGI [9]: > 100 µM
TGI [3]: 77.6 µM
TGI [4]: 34.1 µM
TGI [5]: 43.8 µM
TGI [10]: > 100 µM
TGI [7]: > 100 µM

CC(C)OP(=O)(OC(C)C)c1ncn(-c2ccc([N+](=O)[O-])cc2)n1
TGI [1]: > 100 µM
TGI [2]: > 100 µM
TGI [3]: > 100 µM
TGI [4]: > 100 µM
TGI [5]: > 100 µM
TGI [6]: > 100 µM
TGI [7]: > 100 µM
TGI [8]: > 100 µM

C=C(Cl)C(Cl)(CBr)CCC(Cl)C(C)C (configuration not stated)
TGI [1]: 14.4 µM
TGI [2]: 9.52 µM
TGI [9]: 27.9 µM
TGI [3]: > 100 µM
TGI [4]: 22.1 µM
TGI [5]: 42.6 µM
TGI [10]: 5.8 µM
TGI [7]: 6.02 µM

Cc1ccc(-c2c(C#N)c(O)n(NS(=O)(=O)c3ccccc3)c(=O)c2C#N)cc1
TGI [1]: > 100 µM
TGI [2]: > 100 µM
TGI [9]: > 100 µM
TGI [3]: > 100 µM
TGI [4]: > 100 µM
TGI [5]: > 100 µM
TGI [10]: > 100 µM
TGI [7]: > 100 µM

COc1c(-c2ccc3c(c2)OCO3)oc2cc3c(c(OC)c2c1=O)OCO3
TGI [1]: 50.3 µM
TGI [2]: 63 µM
TGI [9]: 46.6 µM
TGI [3]: > 100 µM
TGI [4]: > 100 µM
TGI [5]: > 100 µM
TGI [10]: 58 µM
TGI [7]: > 100 µM

O=C(O)CCCCCNC(=O)CCC(CN(CC(=O)OCc1ccccc1)CC(=O)OCc1ccccc1)N(CC(=O)OCc1ccccc1)CC(=O)OCc1ccccc1 (configuration not stated)
TGI [1]: 32.2 µM
TGI [2]: 32 µM
TGI [9]: 33.1 µM
TGI [3]: 39.7 µM
TGI [4]: 34.6 µM
TGI [5]: 32.3 µM
TGI [10]: 32.4 µM
TGI [7]: 33.1 µM

CC(C)NC(=O)OCc1c(COC(=O)NC(C)C)c(-c2ccc[n+](COC(=O)C3CCCCC3)c2)n2c1CCC2
TGI [1]: 87.5 µM
TGI [2]: > 100 µM
TGI [9]: > 100 µM
TGI [3]: > 100 µM
TGI [4]: > 100 µM
TGI [5]: > 100 µM
TGI [10]: > 100 µM
TGI [7]: > 100 µM

O=C1CSC(c2ccc(Cl)cc2)N1c1ccc(-n2c(-c3ccccc3)nc3ccccc3c2=O)cc1 (configuration not stated)
TGI [1]: > 100 µM
TGI [2]: > 100 µM
TGI [9]: > 100 µM
TGI [3]: > 100 µM
TGI [4]: > 100 µM
TGI [5]: > 100 µM
TGI [10]: > 100 µM
TGI [7]: > 100 µM

CN(C)/C=C/c1ccnc2c1C(=O)c1ccccc1C2=O
TGI [1]: > 85.6 µM
TGI [2]: > 50.7 µM
TGI [9]: 14.9 µM
TGI [3]: > 56 µM
TGI [4]: 31.5 µM
TGI [5]: 4.16 µM
TGI [10]: 56.7 µM
TGI [7]: 6.19 µM
